Data on 15 compounds can be found in PubChem BioAssay (NCI).

Test systems include A498 renal; A549 NSCLC; LOX IMVI melanoma; NCI-H23 lung; SF-268 CNS; SK-OV-3 ovarian; SN12C renal; SW-620 colon; TK-10 renal.
What all share (test): NCI-60 cell line screen, 48 h

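Compound exposure: 48 hours, 5 concentrations, 96-well plates. The concentration for 50% growth inhibition is given as GI50. At the TGI there is no net growth.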

`CN(C)CCC(/C=C/c1ccccc1)=N\Nc1c(F)c(F)c(F)c(F)c1F`: the TGI in the experiment with A498 renal, with A549 NSCLC, in the experiment with LOX IMVI melanoma, in the experiment with NCI-H23 lung, with SF-268 CNS and in the experiment with SK-OV-3 ovarian was above 100 µM each time. The TGI in the experiment with SN12C renal, in the experiment with SW-620 colon and with TK-10 renal was above 100 µM in each case.
For the compound `COc1ccc(S(=O)(=O)NNS(C)(=O)=O)cc1OC`, the TGI with A498 renal, in the experiment with A549 NSCLC, in the experiment with LOX IMVI melanoma, in the experiment on NCI-H23 lung, with SF-268 CNS and in the experiment on SN12C renal was above 100 µM in each case. For the same compound, the TGI in the experiment with SW-620 colon and in the experiment with TK-10 renal was above 100 µM in each case.
For the compound `CC1(C)O[C@@H](CCl)C[C@@H](C#N)O1`, the TGI in the experiment with A498 renal, in the experiment with A549 NSCLC, in the experiment with LOX IMVI melanoma, with NCI-H23 lung, in the experiment with SF-268 CNS and with SK-OV-3 ovarian was above 100 µM in each case. Also, the TGI in the experiment with SW-620 colon and with TK-10 renal was above 100 µM in each case.
Turning to `C=C(/C=C/C=C(\CO)CCC=C(C)C)[C@H]1CCC2([C@H](CCCO)/C(=C(/C)C=O)CC[C@]2(C)O)[C@H]1O` (some centres not stated), the TGI in the experiment on A498 renal, with A549 NSCLC, with LOX IMVI melanoma, with NCI-H23 lung, in the experiment with SK-OV-3 ovarian and in the experiment on SW-620 colon was above 100 µM each time. In the experiment on TK-10 renal, this compound yielded a TGI above 100 µM.
In the case of `CN(C)CN(C)c1nc(N(C)C)nc(N(C)C)n1`, the TGI in the experiment with A498 renal, in the experiment on A549 NSCLC, in the experiment on LOX IMVI melanoma, in the experiment on NCI-H23 lung, in the experiment on SF-268 CNS and in the experiment on SK-OV-3 ovarian was above 100 µM each time. Also, the TGI in the experiment with SN12C renal, with SW-620 colon and with TK-10 renal was above 100 µM each time.
Take `Clc1ccc(/C=C/c2csnn2)cc1`: the TGI in the experiment with A498 renal, in the experiment on A549 NSCLC, with LOX IMVI melanoma, with NCI-H23 lung, in the experiment on SF-268 CNS and in the experiment with SK-OV-3 ovarian was above 100 µM each time. Besides, the TGI with SN12C renal, with SW-620 colon and in the experiment with TK-10 renal was above 100 µM in each case.
With `O=C(CC/C(CC(=O)c1ccc(Cl)cc1)=N\O)Nc1cccc(Cl)c1`, the TGI in the experiment with A498 renal, in the experiment with A549 NSCLC, in the experiment on LOX IMVI melanoma, with NCI-H23 lung, in the experiment on SF-268 CNS and in the experiment with SK-OV-3 ovarian was above 100 µM each time. Further, the TGI in the experiment with SN12C renal, with SW-620 colon and with TK-10 renal was above 100 µM each time.
As for `OCCN1CCCN(CCCN2c3ccccc3Sc3ccc(C(F)(F)F)cc32)CC1`, the GI50 in the experiment with A498 renal is 1.69 µM; in the experiment on A549 NSCLC, 4.69 µM; in the experiment with LOX IMVI melanoma, 1.73 µM; in the experiment on SF-268 CNS, 3.6 µM; in the experiment on SK-OV-3 ovarian it was 5.29 µM; in the experiment on SN12C renal it was 4.5 µM. In addition, the GI50 in the experiment on SW-620 colon was 1.86 µM; in the experiment on TK-10 renal it was 1.68 µM. Also, the TGI with A498 renal turned out to be 5.63 µM; with A549 NSCLC, 15.6 µM; in the experiment with LOX IMVI melanoma, 3.21 µM; with SF-268 CNS, 15.5 µM; with SK-OV-3 ovarian, 18.4 µM; in the experiment on SN12C renal, 18.5 µM. In addition, the TGI was 4.15 µM with SW-620 colon and 3.58 µM in the experiment on TK-10 renal.
For the compound `COC(=O)C1C(=O)NC2(C)CC1c1ccccc1O2` (configuration not stated), the TGI with A498 renal, with A549 NSCLC, in the experiment on LOX IMVI melanoma, in the experiment with NCI-H23 lung, in the experiment with SF-268 CNS and in the experiment on SK-OV-3 ovarian was above 100 µM throughout. In addition, the TGI in the experiment on SN12C renal, with SW-620 colon and in the experiment on TK-10 renal was above 100 µM in each case.
Consider `O=C(O)c1cc2ccc(Cl)cc2c(O)c1C1=CCCCC1`, for which the TGI in the experiment with A498 renal was 79.1 µM; with A549 NSCLC, above 100 µM; with LOX IMVI melanoma it was above 100 µM; in the experiment on NCI-H23 lung, 95.9 µM; in the experiment with SF-268 CNS it was above 100 µM; in the experiment with SK-OV-3 ovarian, above 100 µM. The TGI in the experiment with SN12C renal, in the experiment with SW-620 colon and in the experiment with TK-10 renal was above 100 µM in each case.
Regarding `Cc1c(C(=O)/C=C/c2ccc3c(c2)OCO3)[n+](=O)c2ccccc2n1[O-]`, the TGI with A498 renal was 64 µM; with A549 NSCLC, above 100 µM; in the experiment on LOX IMVI melanoma it was 66.3 µM; with NCI-H23 lung it was 42.4 µM; with SF-268 CNS it was above 100 µM; in the experiment with SK-OV-3 ovarian, 51.2 µM. Also, the TGI is above 100 µM in the experiment with SN12C renal, above 100 µM in the experiment with SW-620 colon and 80.6 µM in the experiment on TK-10 renal.
For the compound `NC(=O)C1C(=O)Oc2cccnc21` (configuration not stated), the TGI with A549 NSCLC, in the experiment on LOX IMVI melanoma, with NCI-H23 lung, in the experiment on SK-OV-3 ovarian, in the experiment on SN12C renal and with SW-620 colon was above 100 µM throughout. In the experiment with TK-10 renal, this compound had a TGI above 100 µM.
For the compound `Cc1ccc(/C=C2\CCCC(C(NO)c3ccc(C)cc3)C2=NO)cc1` (configuration not stated), the TGI with A498 renal was above 100 µM; in the experiment on A549 NSCLC, above 100 µM; in the experiment with NCI-H23 lung it was 73.2 µM; in the experiment on SF-268 CNS, 66.6 µM; with SK-OV-3 ovarian it was above 100 µM; with SN12C renal, 38.8 µM. The TGI in the experiment on SW-620 colon and with TK-10 renal was above 100 µM in each case.
Regarding `COc1ccc(C2NC(c3ccc(OC)cc3)C(C)C(=O)C2C)cc1` (configuration not stated), the TGI in the experiment with A498 renal, in the experiment on LOX IMVI melanoma, in the experiment with NCI-H23 lung, in the experiment with SF-268 CNS, with SK-OV-3 ovarian and in the experiment on SN12C renal was above 100 µM each time. In the experiment with TK-10 renal, this compound gave a TGI above 100 µM.
Turning to `COc1cc2ccc(CC(=O)O)cc2cc1OC`, the TGI in the experiment on A498 renal, in the experiment with A549 NSCLC, in the experiment on NCI-H23 lung, in the experiment on SF-268 CNS, in the experiment with SK-OV-3 ovarian and in the experiment on SN12C renal was above 100 µM throughout. For the same compound, the TGI in the experiment with SW-620 colon and in the experiment with TK-10 renal was above 100 µM in each case.
